Assay results as given in ChEMBL document CHEMBL1201862, “PubChem BioAssay data set” (2004).
Activity calls are given as the source filed them.

Assays:
Keap1/Nrf2 = Keap1/Nrf2 (Homo sapiens, UniProt Q14145); experiment: Keap1-Nrf2 protein-protein interaction inhibitors, dose response, biochemical, fluorescence polarization, cherry-picked samples (AID 588683)
[1] = molecular target: T1, DNA repair and recombination protein RAD54-like (Homo sapiens, UniProt Q92698); experiment: inhibitors of human RAD54 branch migration, confirmation, biochemical, fluorescence, cherry-picked samples, dose series (AID 651657); type: functional
T1 sequence (Q92698 whole entry): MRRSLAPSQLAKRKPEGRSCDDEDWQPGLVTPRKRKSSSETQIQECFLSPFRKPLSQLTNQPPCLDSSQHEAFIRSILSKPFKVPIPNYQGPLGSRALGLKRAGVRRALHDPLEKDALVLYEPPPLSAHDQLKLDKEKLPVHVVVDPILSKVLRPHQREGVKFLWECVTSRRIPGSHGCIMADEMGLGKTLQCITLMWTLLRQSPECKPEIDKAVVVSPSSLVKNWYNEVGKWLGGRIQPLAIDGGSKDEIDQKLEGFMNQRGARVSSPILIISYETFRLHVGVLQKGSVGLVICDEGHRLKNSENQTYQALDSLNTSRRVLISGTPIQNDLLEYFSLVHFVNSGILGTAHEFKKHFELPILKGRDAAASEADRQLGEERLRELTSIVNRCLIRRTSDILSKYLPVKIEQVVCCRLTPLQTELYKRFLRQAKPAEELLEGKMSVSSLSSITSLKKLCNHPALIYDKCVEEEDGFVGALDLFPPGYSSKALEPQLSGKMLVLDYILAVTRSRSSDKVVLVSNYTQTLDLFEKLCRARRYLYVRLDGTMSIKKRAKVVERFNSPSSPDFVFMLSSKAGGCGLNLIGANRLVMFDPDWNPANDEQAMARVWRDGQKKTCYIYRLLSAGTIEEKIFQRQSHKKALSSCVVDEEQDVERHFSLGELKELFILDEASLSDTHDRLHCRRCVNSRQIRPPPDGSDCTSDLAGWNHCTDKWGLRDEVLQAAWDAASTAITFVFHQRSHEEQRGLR

[2] = DNA binding of candidate compounds, dose response, artefact control for RAD54 inhibitor project, biochemical, fluorescence polarization, cherry-pick (AID 651673); type: functional
[3] = molecular target: Voltage-gated N-type calcium channel alpha-1B subunit/Amyloid beta A4 precursor protein-binding family A member 1 (Homo sapiens, UniProt Q00975+Q02410); type: protein assay
[4] = molecular target: T2, Tyrosine-protein phosphatase non-receptor type 22 (Homo sapiens, UniProt Q9Y2R2); type: functional;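 further: confirmatory dose-response retesting of primary uHTS hits against LYP; potency is for inhibition of phosphatase activity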
T2 sequence (Q9Y2R2 whole entry): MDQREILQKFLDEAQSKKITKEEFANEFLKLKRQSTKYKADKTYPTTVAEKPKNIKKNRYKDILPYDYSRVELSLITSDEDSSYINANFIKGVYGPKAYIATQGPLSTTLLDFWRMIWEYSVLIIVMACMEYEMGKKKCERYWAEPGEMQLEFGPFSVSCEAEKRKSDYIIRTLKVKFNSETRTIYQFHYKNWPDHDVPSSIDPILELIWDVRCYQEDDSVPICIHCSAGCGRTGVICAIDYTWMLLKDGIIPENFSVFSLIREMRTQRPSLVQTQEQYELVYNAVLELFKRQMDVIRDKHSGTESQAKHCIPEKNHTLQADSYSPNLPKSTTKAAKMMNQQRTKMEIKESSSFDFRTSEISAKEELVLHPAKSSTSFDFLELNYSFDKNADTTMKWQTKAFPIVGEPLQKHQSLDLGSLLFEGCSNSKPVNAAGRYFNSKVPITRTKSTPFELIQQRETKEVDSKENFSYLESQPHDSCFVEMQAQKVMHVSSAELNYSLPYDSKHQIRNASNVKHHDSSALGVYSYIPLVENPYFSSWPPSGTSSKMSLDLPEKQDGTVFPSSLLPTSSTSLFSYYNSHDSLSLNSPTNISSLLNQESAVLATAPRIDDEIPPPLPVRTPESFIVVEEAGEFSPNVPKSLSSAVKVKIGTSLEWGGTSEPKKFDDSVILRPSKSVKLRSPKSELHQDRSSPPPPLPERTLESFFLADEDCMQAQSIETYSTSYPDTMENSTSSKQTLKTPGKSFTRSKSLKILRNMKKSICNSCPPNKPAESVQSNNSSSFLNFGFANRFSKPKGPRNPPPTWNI

[5] = molecular target: Kappa-type opioid receptor (Homo sapiens, UniProt P41145); type: functional
CHO = experiment: cytotoxicity in TLR9-MyD88 CHO cells, dose response, cytotoxicity control for TLR9-MyD88 binding inhibitor project, cell-based, luminescence (AID 588339); type: functional, hamster; settings: Cricetulus griseus;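 further: CHO cells stably coexpressing TLR9 and MyD88 fusions from primary screen; compound exposure lasted 48 hours before viability readout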
[6] = molecular target: T3, Rac GTPase-activating protein 1 (Homo sapiens, UniProt Q9H0H5); experiment: MgcRacGAP GTPase-activating activity inhibitors, confirmation, biochemical, ADP Hunter fluorescence, primary and confirmatory (AID 624330); type: functional
T3 sequence (Q9H0H5 whole entry): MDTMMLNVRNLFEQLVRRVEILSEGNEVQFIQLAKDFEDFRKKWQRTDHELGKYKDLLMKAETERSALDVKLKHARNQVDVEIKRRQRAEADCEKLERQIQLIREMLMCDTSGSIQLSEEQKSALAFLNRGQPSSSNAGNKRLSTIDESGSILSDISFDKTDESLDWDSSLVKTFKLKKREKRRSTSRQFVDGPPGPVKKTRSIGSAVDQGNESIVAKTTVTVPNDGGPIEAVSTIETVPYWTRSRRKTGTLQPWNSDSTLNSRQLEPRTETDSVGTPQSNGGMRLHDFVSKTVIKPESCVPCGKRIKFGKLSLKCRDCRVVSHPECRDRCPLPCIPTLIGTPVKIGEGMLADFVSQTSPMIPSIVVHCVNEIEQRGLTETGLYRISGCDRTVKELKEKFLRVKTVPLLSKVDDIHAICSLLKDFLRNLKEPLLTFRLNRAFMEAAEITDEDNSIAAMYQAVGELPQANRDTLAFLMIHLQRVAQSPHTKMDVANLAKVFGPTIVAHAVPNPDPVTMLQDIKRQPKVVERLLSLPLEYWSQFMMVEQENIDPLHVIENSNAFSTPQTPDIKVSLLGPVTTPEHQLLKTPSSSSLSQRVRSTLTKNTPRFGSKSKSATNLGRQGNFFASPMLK

Nonstructural protein 1 = Nonstructural protein 1 (Influenza A virus, UniProt Q194T2); type: functional, Influenza A virus (A/California/07/2009(H1N1))
Genome polyprotein = Genome polyprotein (dengue virus type 2, UniProt P29990); experiment: Dengue-2 NS5 methyltransferase inhibitors, primary screen, biochemical, confirmation dose response (AID 588689); type: functional
Sequence of Genome polyprotein (P29990 2492-3391 limits assumed): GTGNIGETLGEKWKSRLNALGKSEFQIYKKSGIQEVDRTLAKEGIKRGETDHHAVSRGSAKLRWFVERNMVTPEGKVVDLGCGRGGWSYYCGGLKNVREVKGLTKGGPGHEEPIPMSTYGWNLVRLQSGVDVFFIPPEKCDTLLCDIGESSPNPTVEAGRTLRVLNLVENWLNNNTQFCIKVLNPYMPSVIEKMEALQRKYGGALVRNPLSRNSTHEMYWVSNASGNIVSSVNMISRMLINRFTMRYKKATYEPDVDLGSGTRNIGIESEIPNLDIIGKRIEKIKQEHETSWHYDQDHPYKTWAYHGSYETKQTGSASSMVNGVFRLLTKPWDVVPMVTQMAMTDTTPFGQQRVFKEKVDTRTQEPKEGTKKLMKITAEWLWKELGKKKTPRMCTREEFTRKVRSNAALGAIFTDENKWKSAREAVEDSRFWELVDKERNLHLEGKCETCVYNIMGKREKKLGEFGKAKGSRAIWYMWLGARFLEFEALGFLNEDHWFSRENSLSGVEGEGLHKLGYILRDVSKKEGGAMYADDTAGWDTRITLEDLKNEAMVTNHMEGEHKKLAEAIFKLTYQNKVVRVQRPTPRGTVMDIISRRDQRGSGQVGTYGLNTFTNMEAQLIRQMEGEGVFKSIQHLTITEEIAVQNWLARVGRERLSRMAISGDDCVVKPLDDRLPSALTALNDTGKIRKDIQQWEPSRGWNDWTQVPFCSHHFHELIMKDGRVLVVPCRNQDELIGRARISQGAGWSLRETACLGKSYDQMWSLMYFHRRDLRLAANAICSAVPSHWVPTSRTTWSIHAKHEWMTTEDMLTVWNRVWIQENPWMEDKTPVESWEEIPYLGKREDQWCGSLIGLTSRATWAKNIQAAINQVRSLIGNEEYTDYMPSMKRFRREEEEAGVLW

Sequence of Kappa-type opioid receptor (P41145 whole entry, the tested form may be a part): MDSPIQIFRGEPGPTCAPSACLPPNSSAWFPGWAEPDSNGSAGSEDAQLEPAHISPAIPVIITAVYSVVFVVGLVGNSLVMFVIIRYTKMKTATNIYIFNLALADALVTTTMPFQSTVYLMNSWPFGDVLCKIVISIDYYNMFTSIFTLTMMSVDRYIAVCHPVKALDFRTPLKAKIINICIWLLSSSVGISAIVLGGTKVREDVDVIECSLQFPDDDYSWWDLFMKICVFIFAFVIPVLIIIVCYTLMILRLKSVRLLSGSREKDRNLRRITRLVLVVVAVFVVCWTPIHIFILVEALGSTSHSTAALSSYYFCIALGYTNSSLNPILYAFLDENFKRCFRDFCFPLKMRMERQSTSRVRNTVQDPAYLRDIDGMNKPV
Sequence of Voltage-gated N-type calcium channel alpha-1B subunit/Amyloid beta A4 precursor protein-binding family A member 1 (Q00975 whole entry): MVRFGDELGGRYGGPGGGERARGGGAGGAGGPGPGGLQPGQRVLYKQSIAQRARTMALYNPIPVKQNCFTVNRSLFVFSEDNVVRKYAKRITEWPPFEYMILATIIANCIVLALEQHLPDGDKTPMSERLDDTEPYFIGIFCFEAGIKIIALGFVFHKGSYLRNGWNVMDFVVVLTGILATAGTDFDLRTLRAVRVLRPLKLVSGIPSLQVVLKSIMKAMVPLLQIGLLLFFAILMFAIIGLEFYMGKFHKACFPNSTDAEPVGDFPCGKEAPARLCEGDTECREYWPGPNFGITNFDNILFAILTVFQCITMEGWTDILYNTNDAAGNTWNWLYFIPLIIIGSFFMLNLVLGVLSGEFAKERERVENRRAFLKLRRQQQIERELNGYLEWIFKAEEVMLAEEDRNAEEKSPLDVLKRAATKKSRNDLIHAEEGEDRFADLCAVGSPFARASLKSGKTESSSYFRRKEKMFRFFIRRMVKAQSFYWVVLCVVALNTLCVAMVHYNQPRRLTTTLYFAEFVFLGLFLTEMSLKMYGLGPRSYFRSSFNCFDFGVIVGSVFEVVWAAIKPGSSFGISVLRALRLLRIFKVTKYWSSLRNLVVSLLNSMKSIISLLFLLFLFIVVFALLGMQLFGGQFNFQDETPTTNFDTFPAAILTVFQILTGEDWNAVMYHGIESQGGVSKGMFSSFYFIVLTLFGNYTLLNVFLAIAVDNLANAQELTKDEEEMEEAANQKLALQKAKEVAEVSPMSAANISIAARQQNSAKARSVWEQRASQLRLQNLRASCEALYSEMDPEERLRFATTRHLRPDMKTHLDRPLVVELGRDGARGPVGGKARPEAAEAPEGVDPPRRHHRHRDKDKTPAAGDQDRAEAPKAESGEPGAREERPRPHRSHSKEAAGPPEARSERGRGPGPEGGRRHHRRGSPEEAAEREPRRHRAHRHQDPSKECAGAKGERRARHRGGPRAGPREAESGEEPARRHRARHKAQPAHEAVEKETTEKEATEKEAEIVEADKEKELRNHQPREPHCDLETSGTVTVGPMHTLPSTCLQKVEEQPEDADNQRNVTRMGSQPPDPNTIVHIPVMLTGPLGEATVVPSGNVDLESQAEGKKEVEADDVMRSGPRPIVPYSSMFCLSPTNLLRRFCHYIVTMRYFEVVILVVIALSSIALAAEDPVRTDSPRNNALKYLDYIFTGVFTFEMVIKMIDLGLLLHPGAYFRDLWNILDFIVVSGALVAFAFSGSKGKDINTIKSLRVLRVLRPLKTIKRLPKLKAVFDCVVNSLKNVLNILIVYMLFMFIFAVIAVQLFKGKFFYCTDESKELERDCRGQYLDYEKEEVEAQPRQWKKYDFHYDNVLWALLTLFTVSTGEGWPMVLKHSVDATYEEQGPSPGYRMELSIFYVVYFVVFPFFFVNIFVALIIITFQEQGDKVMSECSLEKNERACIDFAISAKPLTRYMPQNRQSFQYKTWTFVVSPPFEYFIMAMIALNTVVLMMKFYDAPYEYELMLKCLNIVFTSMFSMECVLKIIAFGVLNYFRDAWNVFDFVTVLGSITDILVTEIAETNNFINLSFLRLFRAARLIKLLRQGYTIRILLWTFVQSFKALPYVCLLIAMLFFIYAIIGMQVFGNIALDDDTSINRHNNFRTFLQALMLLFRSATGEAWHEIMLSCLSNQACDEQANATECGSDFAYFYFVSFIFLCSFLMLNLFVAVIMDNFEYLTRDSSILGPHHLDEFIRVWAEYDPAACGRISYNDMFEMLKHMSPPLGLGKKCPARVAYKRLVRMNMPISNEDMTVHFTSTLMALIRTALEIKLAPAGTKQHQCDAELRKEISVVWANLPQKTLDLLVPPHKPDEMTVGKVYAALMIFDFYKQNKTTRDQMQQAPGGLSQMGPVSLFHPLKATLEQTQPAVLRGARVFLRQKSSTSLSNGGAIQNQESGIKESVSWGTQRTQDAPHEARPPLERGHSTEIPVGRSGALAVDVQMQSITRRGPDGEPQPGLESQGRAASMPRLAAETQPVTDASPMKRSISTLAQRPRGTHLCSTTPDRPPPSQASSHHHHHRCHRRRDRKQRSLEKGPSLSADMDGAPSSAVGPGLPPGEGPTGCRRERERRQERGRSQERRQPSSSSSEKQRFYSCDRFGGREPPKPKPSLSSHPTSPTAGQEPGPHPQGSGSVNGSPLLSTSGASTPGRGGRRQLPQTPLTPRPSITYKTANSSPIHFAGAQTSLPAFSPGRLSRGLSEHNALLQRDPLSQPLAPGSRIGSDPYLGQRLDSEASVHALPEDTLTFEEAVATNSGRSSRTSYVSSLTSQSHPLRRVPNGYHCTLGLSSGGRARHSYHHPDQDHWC
Sequence of Voltage-gated N-type calcium channel alpha-1B subunit/Amyloid beta A4 precursor protein-binding family A member 1 (Q02410 whole entry): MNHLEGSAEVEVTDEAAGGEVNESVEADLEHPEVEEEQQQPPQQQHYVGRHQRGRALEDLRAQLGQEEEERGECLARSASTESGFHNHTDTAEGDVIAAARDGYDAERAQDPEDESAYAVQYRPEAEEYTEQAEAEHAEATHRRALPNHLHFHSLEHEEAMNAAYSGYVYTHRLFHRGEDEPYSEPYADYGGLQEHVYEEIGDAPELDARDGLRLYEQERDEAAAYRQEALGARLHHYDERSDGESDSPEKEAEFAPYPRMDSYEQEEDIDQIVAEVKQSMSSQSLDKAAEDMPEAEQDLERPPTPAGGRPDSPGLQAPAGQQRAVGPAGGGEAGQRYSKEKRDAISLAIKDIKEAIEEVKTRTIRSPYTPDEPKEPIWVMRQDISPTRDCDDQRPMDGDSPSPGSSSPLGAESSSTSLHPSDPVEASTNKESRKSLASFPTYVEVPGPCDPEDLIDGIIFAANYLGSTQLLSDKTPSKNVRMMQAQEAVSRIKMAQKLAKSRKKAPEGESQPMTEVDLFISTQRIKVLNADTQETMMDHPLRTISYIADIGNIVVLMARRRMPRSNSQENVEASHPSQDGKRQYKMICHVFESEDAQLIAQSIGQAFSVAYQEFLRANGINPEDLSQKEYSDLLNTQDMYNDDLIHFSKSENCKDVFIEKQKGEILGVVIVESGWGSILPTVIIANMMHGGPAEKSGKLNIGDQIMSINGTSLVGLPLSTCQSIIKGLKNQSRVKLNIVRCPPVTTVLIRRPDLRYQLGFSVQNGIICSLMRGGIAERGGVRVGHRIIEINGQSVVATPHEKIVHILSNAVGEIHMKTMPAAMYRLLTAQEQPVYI
Sequence of Nonstructural protein 1 (Q194T2 whole entry): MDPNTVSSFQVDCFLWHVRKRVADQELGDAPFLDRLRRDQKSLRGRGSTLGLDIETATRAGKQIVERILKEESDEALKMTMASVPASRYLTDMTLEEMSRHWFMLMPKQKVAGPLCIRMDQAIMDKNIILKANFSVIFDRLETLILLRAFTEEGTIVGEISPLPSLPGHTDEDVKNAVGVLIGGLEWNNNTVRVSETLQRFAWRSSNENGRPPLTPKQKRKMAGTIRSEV

## CCN(CC)CCN1C(=O)c2cccc3cc(N)cc(c23)C1=O
Keap1/Nrf2
  AC50: > 52 µM (inactive)
[1]
  AC50: 8.83 µM (active)
[2]
  AC50: 56.9 µM (active)

## O=C(O)c1cccc(-n2cccc2/C=C2/NC(=O)N(c3ccc(Cl)cc3)C2=O)c1
[3]
  IC50: 12.1 µM (active)
[4]
  IC50: 2.44 µM (active)

## C=C1C(=O)O[C@@H]2C[C@@H](C)[C@@H]3C=CC(=O)[C@@]3(C)[C@@H](OC(=O)CC(=O)O[C@H]3[C@@H]4C(=C)C(=O)O[C@@H]4C[C@@H](C)[C@@H]4C=CC(=O)[C@]43C)[C@H]12
[5]
  IC50: 13.4 µM (active)
CHO
  IC50: 0.147 µM (active)

## O=S(=O)(O)c1cc(Cl)cc(N=Nc2ccc(O)cc2O)c1O
[6]
  IC50: 83.7 µM (active)
Nonstructural protein 1
  IC50: 8.3 µM (active)
Genome polyprotein
  IC50: 58.3 µM (active)
